Assay results reported in patent US20260132164A1, “PNU ANTHRACYCLINE DERIVATIVES AND METHODS OF USE THEREOF” (Merck Sharp & Dohme LLC, priority 2022, published 2026).

Each molecule was assayed on BxPC3 (assay: CellTiter-Glo 2.0 Cytotoxicity Assay). Conditions: CellTiter-Glo 2.0 luminescence; compound added day 1, read on day 4 or 5; 3000 cells/well.
Assay type: cell-based

SMILES	EC50
COc1cccc2c1C(=O)c1c(O)c3c(c(O)c1C2=O)C[C@@](O)(C(=O)NC1CNCC1(F)F)C[C@@H]3O[C@H]1C[C@H]2[C@H](O[C@@H]3[C@@H](OC)OCCN32)[C@H](C)O1 (some centres unmarked) [Compound 17]	10.7 nM
COc1cccc2c1C(=O)c1c(O)c3c(c(O)c1C2=O)C[C@@](O)(C(=O)NCC1CC(=O)NC1=O)C[C@@H]3O[C@H]1C[C@H]2[C@H](O[C@@H]3[C@@H](OC)OCCN32)[C@H](C)O1 (some centres unmarked) [Compound 88]	0.27 nM
COc1cccc2c1C(=O)c1c(O)c3c(c(O)c1C2=O)C[C@@](O)(C(=O)NC1CCC1N)C[C@@H]3O[C@H]1C[C@H]2[C@H](O[C@@H]3[C@@H](OC)OCCN32)[C@H](C)O1 (some centres unmarked) [Compound 20]	8.5 nM

Same assay, conditions: Homo sapiens, BXPC-3, CellTiter-Glo 2.0 luminescence; compound added day 1, read on day 4 or 5; 3000 cells/well

SMILES	EC50
COc1cccc2c1C(=O)c1c(O)c3c(c(O)c1C2=O)C[C@@](O)(C(=O)N1CC(CN2CC(NC(=O)[C@H](C)N)C2)C1)C[C@@H]3O[C@H]1C[C@H]2[C@H](O[C@@H]3[C@@H](OC)OCCN32)[C@H](C)O1 [Compound 11]	822 nM
COc1cccc2c1C(=O)c1c(O)c3c(c(O)c1C2=O)C[C@@](O)(C(=O)N1C[C@H]2CN[C@H]2C1)C[C@@H]3O[C@H]1C[C@H]2[C@H](O[C@@H]3[C@@H](OC)OCCN32)[C@H](C)O1 [Compound 75]	2.9 nM
COc1cccc2c1C(=O)c1c(O)c3c(c(O)c1C2=O)C[C@@](O)(C(=O)NC12CC(NC(=O)CO)(C1)C2)C[C@@H]3O[C@H]1C[C@H]2[C@H](O[C@@H]3[C@@H](OC)OCCN32)[C@H](C)O1 [Compound 60]	0.55 nM
COc1cccc2c1C(=O)c1c(O)c3c(c(O)c1C2=O)C[C@@](O)(C(=O)NCCN(C)C(=O)C1(N)CCCC1)C[C@@H]3O[C@H]1C[C@H]2[C@H](O[C@@H]3[C@@H](OC)OCCN32)[C@H](C)O1 [Compound 48]	0.31 nM
COc1cccc2c1C(=O)c1c(O)c3c(c(O)c1C2=O)C[C@@](O)(C(=O)NCCNC(=O)NN)C[C@@H]3O[C@H]1C[C@H]2[C@H](O[C@@H]3[C@@H](OC)OCCN32)[C@H](C)O1 [Compound 5]	2.8 nM
COc1cccc2c1C(=O)c1c(O)c3c(c(O)c1C2=O)C[C@@](O)(C(=O)NC1CNC1)C[C@@H]3O[C@H]1C[C@H]2[C@H](O[C@@H]3[C@@H](OC)OCCN32)[C@H](C)O1 [Compound 27]	39 nM
COc1cccc2c1C(=O)c1c(O)c3c(c(O)c1C2=O)C[C@@](O)(C(=O)NCCC(N)C(F)(F)F)C[C@@H]3O[C@H]1C[C@H]2[C@H](O[C@@H]3[C@@H](OC)OCCN32)[C@H](C)O1 (some centres unmarked) [Compound 73]	0.2 nM
COc1cccc2c1C(=O)c1c(O)c3c(c(O)c1C2=O)C[C@@](O)(C(=O)NCCNC(=O)[C@@H]1CCCN1)C[C@@H]3O[C@H]1C[C@H]2[C@H](O[C@@H]3[C@@H](OC)OCCN32)[C@H](C)O1 [Compound 3]	13 nM
COc1cccc2c1C(=O)c1c(O)c3c(c(O)c1C2=O)C[C@@](O)(C(=O)NCC12CC(N)(C1)C2)C[C@@H]3O[C@H]1C[C@H]2[C@H](O[C@@H]3[C@@H](OC)OCCN32)[C@H](C)O1 [Compound 84]	0.61 nM
CNCCNC(=O)[C@]1(O)Cc2c(O)c3c(c(O)c2[C@@H](O[C@H]2C[C@H]4[C@H](O[C@@H]5[C@@H](OC)OCCN54)[C@H](C)O2)C1)C(=O)c1c(OC)cccc1C3=O [Compound 9]	17 nM
COc1cccc2c1C(=O)c1c(O)c3c(c(O)c1C2=O)C[C@@](O)(C(=O)N[C@@H]1CCCC[C@H]1N)C[C@@H]3O[C@H]1C[C@H]2[C@H](O[C@@H]3[C@@H](OC)OCCN32)[C@H](C)O1 [Compound 26]	2.7 nM
COc1cccc2c1C(=O)c1c(O)c3c(c(O)c1C2=O)C[C@@](O)(C(=O)NCCN1CCC(N)C1=O)C[C@@H]3O[C@H]1C[C@H]2[C@H](O[C@@H]3[C@@H](OC)OCCN32)[C@H](C)O1 (some centres unmarked) [Compound 15]	64 nM
COc1cccc2c1C(=O)c1c(O)c3c(c(O)c1C2=O)C[C@@](O)(C(=O)NCC1(F)CNC1)C[C@@H]3O[C@H]1C[C@H]2[C@H](O[C@@H]3[C@@H](OC)OCCN32)[C@H](C)O1 [Compound 36]	0.42 nM
COc1cccc2c1C(=O)c1c(O)c3c(c(O)c1C2=O)C[C@@](O)(C(=O)NCCNC(=O)CN)C[C@@H]3O[C@H]1C[C@H]2[C@H](O[C@@H]3[C@@H](OC)OCCN32)[C@H](C)O1 [Compound 4]	13 nM
COc1cccc2c1C(=O)c1c(O)c3c(c(O)c1C2=O)C[C@@](O)(C(=O)NC12CC(O)(C1)C2)C[C@@H]3O[C@H]1C[C@H]2[C@H](O[C@@H]3[C@@H](OC)OCCN32)[C@H](C)O1 [Compound 90]	0.23 nM
COc1cccc2c1C(=O)c1c(O)c3c(c(O)c1C2=O)C[C@@](O)(C(=O)NCCCCN)C[C@@H]3O[C@H]1C[C@H]2[C@H](O[C@@H]3[C@@H](OC)OCCN32)[C@H](C)O1 [Compound 54]	1.4 nM
COc1cccc2c1C(=O)c1c(O)c3c(c(O)c1C2=O)C[C@@](O)(C(=O)NCC[C@H]1CCCN1)C[C@@H]3O[C@H]1C[C@H]2[C@H](O[C@@H]3[C@@H](OC)OCCN32)[C@H](C)O1 [Compound 45]	0.6 nM
COc1cccc2c1C(=O)c1c(O)c3c(c(O)c1C2=O)C[C@@](O)(C(=O)N[C@@H]1CCC[C@H]1N)C[C@@H]3O[C@H]1C[C@H]2[C@H](O[C@@H]3[C@@H](OC)OCCN32)[C@H](C)O1 [Compound 71]	8.4 nM
COc1cccc2c1C(=O)c1c(O)c3c(c(O)c1C2=O)C[C@@](O)(C(=O)NCC(N)C(F)F)C[C@@H]3O[C@H]1C[C@H]2[C@H](O[C@@H]3[C@@H](OC)OCCN32)[C@H](C)O1 (some centres unmarked) [Compound 69]	0.16 nM

SMILES	EC50
COc1cccc2c1C(=O)c1c(O)c3c(c(O)c1C2=O)C[C@@](O)(C(=O)NCCN(C)C(=O)[C@@](C)(N)C(C)C)C[C@@H]3O[C@H]1C[C@H]2[C@H](O[C@@H]3[C@@H](OC)OCCN32)[C@H](C)O1 [Compound 52]	1.9 nM
COc1cccc2c1C(=O)c1c(O)c3c(c(O)c1C2=O)C[C@@](O)(C(=O)NCCCN1CCNCC1)C[C@@H]3O[C@H]1C[C@H]2[C@H](O[C@@H]3[C@@H](OC)OCCN32)[C@H](C)O1 [Compound 39]	3.8 nM
COc1cccc2c1C(=O)c1c(O)c3c(c(O)c1C2=O)C[C@@](O)(C(=O)NC[C@H]1CCNC1)C[C@@H]3O[C@H]1C[C@H]2[C@H](O[C@@H]3[C@@H](OC)OCCN32)[C@H](C)O1 [Compound 37]	8 nM
COc1cccc2c1C(=O)c1c(O)c3c(c(O)c1C2=O)C[C@@](O)(C(=O)NCc1ccc(N)cn1)C[C@@H]3O[C@H]1C[C@H]2[C@H](O[C@@H]3[C@@H](OC)OCCN32)[C@H](C)O1 [Compound 32]	0.07 nM
CNCCCNC(=O)[C@]1(O)Cc2c(O)c3c(c(O)c2[C@@H](O[C@H]2C[C@H]4[C@H](O[C@@H]5[C@@H](OC)OCCN54)[C@H](C)O2)C1)C(=O)c1c(OC)cccc1C3=O [Compound 38]	9.1 nM
COc1cccc2c1C(=O)c1c(O)c3c(c(O)c1C2=O)C[C@@](O)(C(=O)NC[C@H]1C[C@@H](N)C1)C[C@@H]3O[C@H]1C[C@H]2[C@H](O[C@@H]3[C@@H](OC)OCCN32)[C@H](C)O1 [Compound 31]	2.6 nM
COc1cccc2c1C(=O)c1c(O)c3c(c(O)c1C2=O)C[C@@](O)(C(=O)N1C[C@@H]2CN[C@@H]2C1)C[C@@H]3O[C@H]1C[C@H]2[C@H](O[C@@H]3[C@@H](OC)OCCN32)[C@H](C)O1 [Compound 76]	15 nM
COc1cccc2c1C(=O)c1c(O)c3c(c(O)c1C2=O)C[C@@](O)(C(=O)NCC(N)C(F)(F)F)C[C@@H]3O[C@H]1C[C@H]2[C@H](O[C@@H]3[C@@H](OC)OCCN32)[C@H](C)O1 (some centres unmarked) [Compound 65]	0.16 nM
COc1cccc2c1C(=O)c1c(O)c3c(c(O)c1C2=O)C[C@@](O)(C(=O)NCCN1CCNC1=O)C[C@@H]3O[C@H]1C[C@H]2[C@H](O[C@@H]3[C@@H](OC)OCCN32)[C@H](C)O1 [Compound 63]	0.14 nM
COc1cccc2c1C(=O)c1c(O)c3c(c(O)c1C2=O)C[C@@](O)(C(=O)N[C@H]1CC[C@H](N)CC1)C[C@@H]3O[C@H]1C[C@H]2[C@H](O[C@@H]3[C@@H](OC)OCCN32)[C@H](C)O1 [Compound 59]	6.3 nM
COc1cccc2c1C(=O)c1c(O)c3c(c(O)c1C2=O)C[C@@](O)(C(=O)NCCC(N)C(F)F)C[C@@H]3O[C@H]1C[C@H]2[C@H](O[C@@H]3[C@@H](OC)OCCN32)[C@H](C)O1 (some centres unmarked) [Compound 74]	0.2 nM
COc1cccc2c1C(=O)c1c(O)c3c(c(O)c1C2=O)C[C@@](O)(C(=O)Nc1ccc(CN)cc1)C[C@@H]3O[C@H]1C[C@H]2[C@H](O[C@@H]3[C@@H](OC)OCCN32)[C@H](C)O1 [Compound 83]	11 nM
COc1cccc2c1C(=O)c1c(O)c3c(c(O)c1C2=O)C[C@@](O)(C(=O)NC[C@H]1C[C@H](N)C1)C[C@@H]3O[C@H]1C[C@H]2[C@H](O[C@@H]3[C@@H](OC)OCCN32)[C@H](C)O1 [Compound 43]	2.2 nM
COc1cccc2c1C(=O)c1c(O)c3c(c(O)c1C2=O)C[C@@](O)(C(=O)NC[C@@H]1CCNC1)C[C@@H]3O[C@H]1C[C@H]2[C@H](O[C@@H]3[C@@H](OC)OCCN32)[C@H](C)O1 [Compound 58]	3.9 nM
COc1cccc2c1C(=O)c1c(O)c3c(c(O)c1C2=O)C[C@@](O)(C(=O)NC12CC(CN)(C1)C2)C[C@@H]3O[C@H]1C[C@H]2[C@H](O[C@@H]3[C@@H](OC)OCCN32)[C@H](C)O1 [Compound 44]	4.8 nM
COc1cccc2c1C(=O)c1c(O)c3c(c(O)c1C2=O)C[C@@](O)(C(=O)NC1CC2(CNC2)C1)C[C@@H]3O[C@H]1C[C@H]2[C@H](O[C@@H]3[C@@H](OC)OCCN32)[C@H](C)O1 [Compound 46]	18 nM
COc1cccc2c1C(=O)c1c(O)c3c(c(O)c1C2=O)C[C@@](O)(C(=O)NC[C@@H]1CNC(=O)C1)C[C@@H]3O[C@H]1C[C@H]2[C@H](O[C@@H]3[C@@H](OC)OCCN32)[C@H](C)O1 [Compound 86]	0.39 nM
COc1cccc2c1C(=O)c1c(O)c3c(c(O)c1C2=O)C[C@@](O)(C(=O)N[C@H]1C[C@H](N)C1)C[C@@H]3O[C@H]1C[C@H]2[C@H](O[C@@H]3[C@@H](OC)OCCN32)[C@H](C)O1 [Compound 42]	12 nM
COc1cccc2c1C(=O)c1c(O)c3c(c(O)c1C2=O)C[C@@](O)(C(=O)N1CC(CNC(=O)[C@H](C)N)C1)C[C@@H]3O[C@H]1C[C@H]2[C@H](O[C@@H]3[C@@H](OC)OCCN32)[C@H](C)O1 [Compound 6]	8.6 nM
